Experimental data taken from US9630977B2, “Cephalosporin derivatives and pharmaceutical compositions thereof” (Legochem Biosciences, Inc., priority 2011, dated 2017).

What was measured:
[1] = test system: P. aeruginosa (16 clinical isolates); assay: Antibacterial activity on representative drug-resistance bacteria: number of clinical isolates per MIC value; assay type: cell-based; conditions: P. aeruginosa (N = 16)
Description: (§1) The in vitro antibacterial activity was evaluated by measuring MIC90 (ug/mL) of each of the compounds of Examples 1 to 68, which is defined as the lowest concentration of an antibiotic that will inhibit the visible growth of 90% of microorganisms after incubation as compared with a control group to which the antibiotic is not treated. MIC90 values were measured by the broth microdilution method developed by the Clinical and Laboratory Standards Institute (CLSI) (see CLSI M7-A5, Methods for Dilution Antimicrobial Susceptibility Test for Bacteria that Grow Aerobically-Fifth Edition (2000): CLSI, Villanova, Pa.).
(§2) Test compounds each (the cephalosporin derivative compounds prepared in Examples 1 to 68) were dissolved in DMSO at the concentration of 10,240 ug/mL, were diluted by two fold with DMSO, and then were diluted by twenty fold with sterilized distilled water. The final concentration in the antibacterial activity test was in the range of […] to 128 ug/mL, and the final concentration of DMSO used as an adjuvant was 2.5% (V/V).

[2] = test system: K. pneumoniae (38 clinical isolates); assay: as above; assay type: cell-based; conditions: K. pneumomiae (N = 38)
Description: as §1, §2

[3] = test system: A. baumannii (6 clinical isolates); assay: as above; assay type: cell-based; conditions: A. baumanni (N = 6)
Description: as §1, §2

P. aeruginosa R1023 = assay: In vivo efficacy, whole-body infected mouse model, Ceftazidime-resistant bacteria;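 for Survival rate: each column one dose of 5 10 20 or 40 mg/kg given sc at 1 h and 4 h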; set-up: species or system ICR mouse; conditions: for Survival rate: subcutaneous 1 h and 4 h after infection, P. aeruginosa R1023 (2 × 10^6 CFU/mouse), four days
Description: Pharmaceutical efficacy of the cephalosporin derivative compounds according to the present invention was evaluated in a whole-body infected mouse model. Tables 3 and 4 show survival rate and ED50 values for the two compounds with excellent antibacterial activity with regard to an infected mouse by a drug-sensitive bacteria and a drug-resistant bacteria.
Test animals: 3 week old male ICR mouse, weight 18˜22 g; 5 mice/group.
Lab conditions: Temperature of 23±2° C.; humidity of 55±20%.
Administration method: Inducing whole-body infection by bacterial solution followed by subcutaneous injection (0.2 mL) after 1 hour and 4 hours.
Test method: Cultured bacteria were diluted with 0.9% NaCl to prepare a bacterial solution having a concentration that is 5 to 10 times of […]. 0.5 mL of bacterial solution was injected through abdominal cavity to induce whole-body infection. Test compounds were administered in four different amounts, which were designed considering in vitro MIC values of the test bacteria. After 1 hour and 4 hours, the four different amounts of the test compounds were subcutaneously administered. Survival rates were measured for four days and ED50 values were calculated according to the Probit method.

C[C@@H](O)[C@H]1C(=O)N2C(C(=O)O)=C(S[C@@H]3CN[C@H](CNS(N)(=O)=O)C3)[C@H](C)[C@H]12 [Doripenem, reference compound]
number of clinical isolates that showed the respective MIC value ([1]; MIC 4 ug/mL): 1
number of clinical isolates that showed the respective MIC value ([1]; MIC 8 ug/mL): 1
number of clinical isolates that showed the respective MIC value ([1]; MIC 16 ug/mL): 5
number of clinical isolates that showed the respective MIC value ([1]; MIC >16 ug/mL): 9
number of clinical isolates that showed the respective MIC value ([2]; MIC 0.0625 ug/mL): 1
number of clinical isolates that showed the respective MIC value ([2]; MIC 0.125 ug/mL): 6
number of clinical isolates that showed the respective MIC value ([2]; MIC 0.25 ug/mL): 3
number of clinical isolates that showed the respective MIC value ([2]; MIC 0.5 ug/mL): 5
number of clinical isolates that showed the respective MIC value ([2]; MIC 1 ug/mL): 6
number of clinical isolates that showed the respective MIC value ([2]; MIC 2 ug/mL): 5
number of clinical isolates that showed the respective MIC value ([2]; MIC 8 ug/mL): 4
number of clinical isolates that showed the respective MIC value ([2]; MIC 16 ug/mL): 2
number of clinical isolates that showed the respective MIC value ([2]; MIC <0.0625 ug/mL): 6
number of clinical isolates that showed the respective MIC value ([3]; MIC 16 ug/mL): 1
number of clinical isolates that showed the respective MIC value ([3]; MIC >16 ug/mL): 5
ED50 (P. aeruginosa R1023; Pseudomonas aeruginosa, sc, Probit method, subcutaneous, mouse infected by Ceftazidime-resistant P. aeruginosa R1023): 28 mg/kg
Survival rate (P. aeruginosa R1023; administered amount 5 mg/kg): 0%
Survival rate (P. aeruginosa R1023; administered amount 10 mg/kg): 20%
Survival rate (P. aeruginosa R1023; administered amount 20 mg/kg): 20%
Survival rate (P. aeruginosa R1023; administered amount 40 mg/kg): 80%

Cn1c(N)c(NC(=O)NCCN)c[n+]1CC1=C(C(=O)O)N2C(=O)[C@@H](NC(=O)/C(=N\OC(C)(C)C(=O)[O-])c3nsc(N)n3)[C@H]2SC1 [CXA-101, reference compound]
number of clinical isolates that showed the respective MIC value ([1]; MIC 2 ug/mL): 4
number of clinical isolates that showed the respective MIC value ([1]; MIC 4 ug/mL): 4
number of clinical isolates that showed the respective MIC value ([1]; MIC 8 ug/mL): 1
number of clinical isolates that showed the respective MIC value ([1]; MIC >16 ug/mL): 7
number of clinical isolates that showed the respective MIC value ([2]; MIC 1 ug/mL): 1
number of clinical isolates that showed the respective MIC value ([2]; MIC 2 ug/mL): 1
number of clinical isolates that showed the respective MIC value ([2]; MIC 16 ug/mL): 1
number of clinical isolates that showed the respective MIC value ([2]; MIC >16 ug/mL): 35
number of clinical isolates that showed the respective MIC value ([3]; MIC >16 ug/mL): 6
